What was measured:
HCT116 MTAP KO cells = experiment: Inhibitory activity against cell proliferation (CellTiter Glo, 6 days), HCT116 MTAP KO; assay type: cell-based; conditions: for IC50: Homo sapiens, HCT-116, 144 h, HCT116 MTAP KO cells, 6 days, CellTiter Glo, read-out: HCT116 MTAP KO IC50; for Selectivity HCT 116-WT/ HCT116 MTAP KO: ratio of IC50 HCT116-WT / HCT116 MTAP KO
Outline: (§1)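 250 cells/well, McCoy's 5A + 10% FBS, o/n 37°C 5% CO2; cpd 8-pt 4-fold from 10000 nM, 6 d; CTG lum on day 7; IC50 vs DMSO.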

PRMT5-MTA = PRMT5-MTA (Homo sapiens, UniProt O14744); experiment: Enzymatic inhibitory activity against PRMT5-MTA (AlphaScreen); assay type: biochemical; conditions: read-out: IC50
Outline: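 PRMT5/[…] (1 nM) was preincubated for 30 min at room temperature with 1 µM […] and 2.5 µM SAM, then exposed to compound (10-point, 3-fold from 1000 nM) for 15 min at 23 °C. Histone H4 substrate (5 nM) was added and reacted for 45 min at 23 °C. Symmetric dimethyl-R3 H4 was detected by AlphaScreen and IC50 calculated.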

HCT116-WT cells = experiment: Inhibitory activity against cell proliferation (CellTiter Glo, 6 days), HCT116-WT; assay type: cell-based; conditions: 144 h, HCT116-WT cells, 6 days, CellTiter Glo; read-out: HCT116-WT IC50
Outline: as §1

Chain of PRMT5-MTA (O14744 whole entry): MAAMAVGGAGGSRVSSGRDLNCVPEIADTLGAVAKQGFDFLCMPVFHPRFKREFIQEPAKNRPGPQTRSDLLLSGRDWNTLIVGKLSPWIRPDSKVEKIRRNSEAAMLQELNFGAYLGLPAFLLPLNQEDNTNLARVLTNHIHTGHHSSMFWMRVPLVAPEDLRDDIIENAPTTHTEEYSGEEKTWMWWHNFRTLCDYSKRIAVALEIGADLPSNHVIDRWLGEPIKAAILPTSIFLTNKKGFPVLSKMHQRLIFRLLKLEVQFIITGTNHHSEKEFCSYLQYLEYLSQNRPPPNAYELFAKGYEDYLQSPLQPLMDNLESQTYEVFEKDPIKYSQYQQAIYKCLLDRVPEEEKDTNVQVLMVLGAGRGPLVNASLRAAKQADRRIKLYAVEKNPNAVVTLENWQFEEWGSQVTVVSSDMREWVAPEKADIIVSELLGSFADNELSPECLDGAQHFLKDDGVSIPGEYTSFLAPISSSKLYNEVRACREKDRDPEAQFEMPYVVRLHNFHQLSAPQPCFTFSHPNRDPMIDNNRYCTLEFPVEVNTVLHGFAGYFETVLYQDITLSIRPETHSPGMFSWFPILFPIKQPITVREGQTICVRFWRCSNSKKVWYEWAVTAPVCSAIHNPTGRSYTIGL
Chain of PRMT5-MTA (Q9BQA1 whole entry partner): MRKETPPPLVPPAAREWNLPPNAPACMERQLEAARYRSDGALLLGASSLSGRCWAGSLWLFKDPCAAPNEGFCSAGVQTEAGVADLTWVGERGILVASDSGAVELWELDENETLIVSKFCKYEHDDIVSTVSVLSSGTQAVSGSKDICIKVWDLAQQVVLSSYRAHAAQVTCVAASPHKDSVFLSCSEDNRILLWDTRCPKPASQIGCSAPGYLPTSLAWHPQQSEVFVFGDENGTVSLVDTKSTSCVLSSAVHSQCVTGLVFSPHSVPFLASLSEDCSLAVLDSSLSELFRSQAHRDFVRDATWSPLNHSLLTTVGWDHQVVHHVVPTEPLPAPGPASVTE

SMILES	IC50 (HCT116 MTAP KO cells)	Selectivity HCT 116-WT/ HCT116 MTAP KO (HCT116 MTAP KO cells)	IC50 (PRMT5-MTA)	IC50 (HCT116-WT cells)
Cc1cc2cc(C(=O)N(Cc3ccc(-c4cccnc4)cc3F)N(C)c3ncccn3)ccc2nc1N [Example 177, 2-amino-N-(2-fluoro-4-(pyridin-3-yl)benzyl)-N',3-dimethyl-N'-(pyrimidin-2-yl)qu inoline-6-carbohydrazide]	30 nM	31.20	1.1 nM	936 nM
Cc1cc2cc(C(=O)N(Cc3ccc(-c4ccncc4)cn3)N(C)c3ncccc3F)ccc2nc1N [Example 178, N-([3,4'-bipyridine]-6-ylmethyl)-2-amino -N'-(3-fluoropyridin-2-yl)-N',3-dimethylq uinoline-6-carbohydrazide]	21 nM	23.14	1.6 nM	486 nM
Cc1cc2cc(C(=O)N(Cc3ccc(-c4cnn(C)c4)cn3)N(C)c3ncccc3F)ccc2nc1N [Example 179, 2-amino-N'-(3-fluoropyridin-2-yl)-N',3-di methyl-N-((5-(1-methyl-1H-pyrazol-4-yl)pyridin-2-yl)methyl)quinoline-6-carbohy drazide]	64 nM	20.56	3.4 nM	1320 nM
Cc1ncc(-c2ccc(CN(C(=O)c3ccc4nc(N)c(C)cc4c3)N(C)c3ncccn3)nc2)cn1 [Example 180, 2-amino-N',3-dimethyl-N-((5-(2-methylpyrimidin-5-yl)pyridin-2-yl)methyl)-N'-(pyrimidin-2-yl)quinoline-6-carbohydrazide]	41 nM	45.73	3.2 nM	1880 nM
Cc1cc2cc(C(=O)N(Cc3ccc(-c4cnn(CC(F)(F)F)c4)cn3)N(C)c3ncccn3)ccc2nc1N [Example 181, 2-amino-N',3-dimethyl-N'-(pyrimidin-2-yl)-N-((5-(1-(2,2,2-trifluoroethyl)-1H-pyrazol-4-yl)pyridin-2-yl)methyl)quinoline-6-carbohydrazide]	36 nM	24.03	0.69 nM	865 nM
Cc1cc2cc(C(=O)N(Cc3ccc(-c4cncs4)cn3)N(C)c3nccc4nccnc34)ccc2nc1N [Example 183, 2-amino-N',3-dimethyl-N'-(pyrido[3,4-b]pyrazin-5-yl)-N-((5-(thiazol-5-yl)pyridin-2-yl)methyl)quinoline-6-carbohydrazide]	17 nM	18.71	3.9 nM	318 nM
Cc1cc2cc(C(=O)N(Cc3ccc(-c4scnc4C)cn3)N(C)c3nccc4nccnc34)ccc2nc1N [Example 185, 2-amino-N',3-dimethyl-N-((5-(4-methylthiazol-5-yl)pyridin-2-yl)methyl)-N'-(pyrido[3,4-b]pyrazin-5-yl)quinoline-6-carbohydrazide]	7.5 nM	17.07	4.7 nM	128 nM
Cc1cc2cc(C(=O)N(Cc3ccc(C4=CCOC4)cn3)N(C)c3ncccn3)ccc2nc1N [Example 186, 2-amino-N-((5-(2,5-dihydrofuran-3-yl)pyridin-2-yl)methyl)-N',3-dimethyl-N'-(pyrimidin-2-yl)quinoline-6-carbohydrazide]	122 nM	23.20	5.6 nM	2830 nM
Cc1cc2cc(C(=O)N(Cc3ccc(C4=CCCOC4)cn3)N(C)c3ncccn3)ccc2nc1N [Example 187, 2-amino-N-((5-(5,6-dihydro-2H-pyran-3-yl)pyridin-2-yl)methyl)-N',3-dimethyl-N' -(pyrimidin-2-yl)quinoline-6-carbohydrazide]	33 nM	23.88	2.3 nM	788 nM
C=Cc1ccc(CN(C(=O)c2ccc3nc(N)c(C)cc3c2)N(C)c2ncccn2)nc1 [Example 188, 2-amino-N',3-dimethyl-N'-(pyrimidin-2-yl)-N-((5-vinylpyridin-2-yl)methyl)quinoline-6-carbohydrazide]	126 nM	22.44	2.7 nM	2830 nM
Cc1cc2cc(C(=O)N(Cc3ccc(-c4cc[nH]c4)cn3)N(C)c3ncccn3)ccc2nc1N [Example 191, N-((5-(1H-pyrrol-3-yl)pyridin-2-yl)methyl)-2-amino-N',3-dimethyl-N'-(pyrimidin-2-yl)quinoline-6-carbohydrazide]	112 nM	20.90	2.5 nM	2340 nM
Cc1cc2cc(C(=O)N(Cc3ccc(-c4cnn(C5CC5)c4)cn3)N(C)c3ncccn3)ccc2nc1N [Example 192, 2-amino-N-((5-(1-cyclopropyl-1H-pyrazol-4-yl)pyridin-2-yl)methyl)-N',3-dimethyl -N'-(pyrimidin-2-yl)quinoline-6-carbohydrazide]	44 nM	27.66	2.1 nM	1220 nM
Cc1cc2cc(C(=O)N(Cc3ccc(-c4cncnc4)cn3)N(C)c3ncccn3)ccc2nc1N [Example 193, 2-amino-N',3-dimethyl-N'-(pyrimidin-2-yl)-N-((5-(pyrimidin-5-yl)pyridin-2-yl)methyl)quinoline-6-carbohydrazide]	94 nM	25.35	2.7 nM	2380 nM
Cc1cc2cc(C(=O)N(Cc3ccc(C4CC4)cn3)N(C)c3ncccc3C(F)(F)F)ccc2nc1N [Example 196, 2-amino-N-((5-cyclopropylpyridin-2-yl)methyl)-N',3-dimethyl-N'-(3-(trifluoromethyl)pyridin-2-yl)quinoline-6-carbohydrazide]	34 nM	12.97	5.7 nM	441 nM
Cc1cc2cc(C(=O)N(Cc3ccc(-c4cnc5ccccc5c4)cn3)N(C)c3ncccn3)ccc2nc1N [Example 197, 2-amino-N',3-dimethyl-N'-(pyrimidin-2-yl)-N-((5-(quinolin-3-yl)pyridin-2-yl)methyl)quinoline-6-carbohydrazide]	34 nM	18.97	1.1 nM	645 nM
COc1cc(-c2ccc(CN(C(=O)c3ccc4nc(N)c(C)cc4c3)N(C)c3ncccn3)nc2)cnc1F [Example 199, 2-amino-N-((6'-fluoro-5'-methoxy-[3,3'-bipyridine]-6-yl)methyl)-N',3-dimethyl-N'-(pyrimidin-2-yl)quinoline-6-carbohydrazide]	106 nM	18.53	2.5 nM	1960 nM
Cc1cc2cc(C(=O)N(Cc3ccc(-c4cn[nH]c4)cn3)N(C)c3ncccn3)ccc2nc1N [Example 200, N-((5-(1H-pyrazol-4-yl)pyridin-2-yl)methyl)-2-amino-N',3-dimethyl-N'-(pyrimidin-2-yl)quinoline-6-carbohydrazide]	36 nM	34.36	1.7 nM	1240 nM
Cc1cc2cc(C(=O)N(Cc3ccc(-c4ccsc4)cn3)N(C)c3ncccn3)ccc2nc1N [Example 201, 2-amino-N',3-dimethyl-N'-(pyrimidin-2-y 1)-N-((5-(thien-3-yl)pyridin-2-yl)methyl) quinoline-6-carbohydrazide]	51 nM	24.25	2.1 nM	1240 nM
Cc1cc2cc(C(=O)N(Cc3ccc(-c4ccccc4)cn3)N(C)c3ncccn3)ccc2nc1N [Example 202, 2-amino-N',3-dimethyl-N-((5-phenylpyridin-2-yl)methyl)-N'-(pyrimidin-2-yl)quin oline-6-carbohydrazide]	74 nM	14.26	2.9 nM	1060 nM
Cc1cc2cc(C(=O)N(Cc3ccc(-c4cnn(C(C)C)c4)cn3)N(C)c3ncccn3)ccc2nc1N [Example 203, 2-amino-N-((5-(1-isopropyl-1H-pyrazol-4-yl)pyridin-2-yl)methyl)-N',3-dimethyl-N'-(pyrimidin-2-yl)quinoline-6-carbohydrazide]	40 nM	25.65	1.8 nM	1030 nM
Cc1cc2cc(C(=O)N(Cc3ccc(-c4ccc(N5CCCC5)nc4)cn3)N(C)c3ncccn3)ccc2nc1N [Example 211, 2-amino-N',3-dimethyl-N'-(pyrimidin-2-yl)-N-((6'-(pyrrolidin-1-yl)-[3,3'-bipyridine]-6-yl)methyl)quinoline-6-carbohydrazide]	84 nM	18.96	2.3 nM	1590 nM
Cc1cc2cc(C(=O)N(Cc3ccc(-c4cncs4)cn3)N(c3ncccn3)C3CC3)ccc2nc1N [Example 215, 2-amino-N'-cyclopropyl-3-methyl-N'-(pyrimidin-2-yl)-N-((5-(thiazol-5-yl)pyridin-2-yl)methyl)quinoline-6-carbohydrazide]	7.1 nM	25.07	5.3 nM	178 nM
Cc1cc2cc(C(=O)N(Cc3ccc(-c4cnn(C(F)(F)F)c4)cn3)N(c3ncccn3)C3CC3)ccc2nc1N [Example 216, 2-amino-N'-cyclopropyl-3-methyl-N'-(pyrimidin-2-yl)-N-((5-(1-(trifluoromethyl)-1H-pyrazol-4-yl)pyridin-2-yl)methyl)qui noline-6-carbohydrazide]	23 nM	27.26	3.3 nM	627 nM

Source: patent publication EP4745134A1 (Jiangsu Yahong Meditech Co., Ltd., priority 2023, dated 2025)
